The source of these data is patent US7902369B2, “Diaryl-substituted five-membered heterocycle derivative” (Banyu Pharmaceutical Co., Ltd., priority 2004, dated 2011).

In general, IC50 refers to the concentration that gives 50% inhibition. By inhibition in vivo is commonly meant the relative decrease from the control value, in per cent. High values mean strong suppression, low ones little suppression.

For test [1], the target named is T1, human metabotropic glutamate receptor 1a (mGluR1a) (Homo sapiens, UniProt Q13255).
T1 construct: expressed in transfected cells
T1 sequence (Q13255 19-1194): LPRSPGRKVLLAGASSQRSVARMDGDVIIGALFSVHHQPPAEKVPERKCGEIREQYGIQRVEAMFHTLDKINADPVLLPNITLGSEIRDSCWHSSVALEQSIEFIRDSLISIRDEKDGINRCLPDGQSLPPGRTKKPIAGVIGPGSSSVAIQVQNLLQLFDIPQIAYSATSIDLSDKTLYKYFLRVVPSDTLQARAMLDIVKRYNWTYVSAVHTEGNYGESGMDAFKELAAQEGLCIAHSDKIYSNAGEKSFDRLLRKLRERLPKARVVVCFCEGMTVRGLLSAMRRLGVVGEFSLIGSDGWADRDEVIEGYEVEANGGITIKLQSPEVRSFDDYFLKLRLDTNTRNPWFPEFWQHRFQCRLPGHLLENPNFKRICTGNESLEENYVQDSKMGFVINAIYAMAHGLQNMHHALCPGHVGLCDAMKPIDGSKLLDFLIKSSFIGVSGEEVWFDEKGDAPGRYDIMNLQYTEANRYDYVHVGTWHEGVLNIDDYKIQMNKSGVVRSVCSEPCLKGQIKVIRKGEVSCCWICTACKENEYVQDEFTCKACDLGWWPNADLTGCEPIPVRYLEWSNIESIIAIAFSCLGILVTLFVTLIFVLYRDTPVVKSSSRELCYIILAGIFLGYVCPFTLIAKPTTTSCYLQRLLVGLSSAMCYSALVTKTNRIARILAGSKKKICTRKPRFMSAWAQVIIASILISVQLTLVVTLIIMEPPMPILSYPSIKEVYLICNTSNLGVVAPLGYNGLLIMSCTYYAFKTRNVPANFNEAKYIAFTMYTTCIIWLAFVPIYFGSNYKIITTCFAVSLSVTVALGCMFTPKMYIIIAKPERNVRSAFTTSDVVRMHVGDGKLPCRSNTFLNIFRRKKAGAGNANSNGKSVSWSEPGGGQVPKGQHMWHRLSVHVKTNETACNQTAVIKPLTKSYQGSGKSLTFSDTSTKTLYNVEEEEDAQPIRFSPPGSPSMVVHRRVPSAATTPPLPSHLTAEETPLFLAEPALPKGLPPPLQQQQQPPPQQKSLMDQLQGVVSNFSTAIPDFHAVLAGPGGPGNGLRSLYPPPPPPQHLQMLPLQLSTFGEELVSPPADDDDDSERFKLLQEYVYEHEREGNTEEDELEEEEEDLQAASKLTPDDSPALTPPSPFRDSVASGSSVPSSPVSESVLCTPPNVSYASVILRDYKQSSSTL
Briefly: mGluR1 inhibiting effect: intracellular calcium concentration (FLIPR) in mGluR1a-expressing CHO cells. It counts as cell-based. Particulars: suppression of calcium increase by 10 μM glutamic acid, test compound added 5 min before agonist. As to the method:
MGlu1 inhibiting effect was measured by using the compound of the present invention.
With the use of Lipofectamine (Gibco BRL), cDNA of human metabotropic glutamate receptor 1a (mGluR1a) were transfected to CHO cells, to obtain cells expressing mGluR1a in a stable manner. CHO cells which expressed mGluR1a were cultured in DMEM medium containing 10% dialysis fetal bovine serum, 1% proline, 100 units/ml of penicillin, 0.1 mg of streptomycin sulfate and […] glutamine.
4 μM of Fluo-3 was incubated to mGluR1a-expressing CHO cells plated with 50000 cells per 1 well of 96-well black plate (Packard, Viewplate) the day before the measurement, in a CO2 incubator for 1 hour. The cells were washed 4 times with HBSS solution containing 20 mM HEPES and 25 mM probenecid, and the intracellular calcium concentration was measured with the use of Fluorescence Imaging Plate Reader (FLIPR; Mollecular Device). The test compounds and glutamic acid were adjusted with HBSS solution containing 20 mM HEPES and 2.5 mM Probenecid. The test compounds were added 5 min before agonist stimulation, and 10 μM of glutamic acid was used as agonist.
The calcium increased with 10 μM of glutamic acid was suppressed dose-dependently.

For test [2], the system named is male ICR(CD-1) mouse. Briefly: Suppression of mouse spontaneous movement level increased by methamphetamine. It counts as in vivo. Particulars: po, 1 h, 3 mg/kg orally 30 min before 2 mg/kg methamphetamine, movement level during 60 min. As to the method:
With the use of male ICR(CD-1) mouse (20-40 g), movement level was measured with the use of movement level-measuring device detecting animal migration by infrared radiation sensor (Neuroscience). Compounds or appropriate solvents were administered to mice, and after administrating normal saline solution or 2 mg/kg of methamphetamine 30 min later, the movement level during 60 min from after the administration was measured. By making the difference between the movement level of the methamphetamine-administered group and that of the solvents-administered group during measuring period as 100%, the movement level of test compound-administered group was shown by inhibition % for estimation.

The subject of test [3] is rats. Put plainly: Suppression of the reduction of prepulse inhibition (PPI) by methamphetamine. It counts as in vivo. Particulars: orally 30 min before 3 mg/kg methamphetamine; rat startle reaction, 120 dB pulse with prepulse. As to the method: Systems tested for prepulse inhibition which can detect specifically antipsychotic effect were also investigated. By using startle reflex measuring device (San Diego Instruments) which can dectect movement of rats, startle reaction to 120 dB-sound stimulation (pulse stimulation) combined with 63, 66 and 72 dB-sound stimulation prior to pulse stimulation (prepulse) was measured in the presence of 60 dB-background sound. The compounds of the present invention or appropriate solvents were administered to rats, and normal saline solution or 3 mg/kg of methamphetamine was administered 30 min later, to measure startle reation. Startle reactions to pulse stimulation and to stimulation with prepulse were named A and B respectively, and the prepulse inhibition (herein referred to as PPI) level was calculated with the following formula. Calculating formula of PPI:PPI(%)=100×(A−B)/A
In contrast to startle reaction toward pulse stimulation, in the presence of preminary prepulse of 72 dB, startle reaction decreased by about 50% (prepulse inhibition). When pre-treating with methamphemine, strate reaction decreased only by about 20%, and decrease of prepulse inhibition was observed. Moreover, by administrating orally the compounds having mGluR1 antagonist effect 30 min before methamphetamine administration to the present models, decrease of prepulse inhibition by methamphetamine had tendance to recover.

As to `Cc1c(-c2ccc3c(c2)CC2(CC2)C3=O)nnn1-c1cccnc1F` [Example 34, 1-(2-fluoropyridine-3-yl)-5-methyl-4-(1-oxoindane-2-spiro-1′-cyclopropyl-5-yl)-1H-[1,2,3]triazole], the IC50 in test [1] is 2.3 nM. The molecule also had an inhibition in vivo at 3 mg/kg in test [2] of more than 50%. Also, the “Inhibition effect to PPI disorder” value in test [3] is recorded as “yes”.

Consider `Cc1c(-c2ccc3c(=O)n(CC(C)(C)O)ccc3c2)nnn1-c1ccc(F)cc1` [Example 204, 4-(2-(2-hydroxy-2-methyl-propyl)-1-oxo-isoquinoline-6-yl)-1-(4-fluorophenyl)-5-methyl-1H-[1,2,3]triazole], for which the 50% inhibitory concentration (IC50) in test [1] was found to be 3.4 nM. The same molecule yielded an inhibition in vivo at 3 mg/kg in test [2] of more than 50%. For the same molecule, the “Inhibition effect to PPI disorder” value in test [3] is on record as “yes”.

On to `Cc1c(-c2ccc3c(c2)CN(CC(F)F)C3=O)nnn1-c1ccc(F)cc1` [Example 151, 4-(2-(2,2-difluoroethyl)-1-oxo-isoindoline-5-yl)-1-(4-fluorophenyl)-5-methyl-1H-[1,2,3]triazole], for which the IC50 in test [1] stood at 2.5 nM. In test [2], the inhibition in vivo at 3 mg/kg is more than 50%. Besides, the “Inhibition effect to PPI disorder” value in test [3] was “yes”.

In the case of `Cc1c(-c2ccc3c(c2)CN(C(C)C)C3=O)nnn1-c1ccc(F)cc1F` [Example 119, 4-(2-isopropyl-1-oxo-isoindoline-5-yl)-1-(2,4-difluorophenyl)-5-methyl-1H-[1,2,3]triazole], the IC50 in test [1] is 4.3 nM. In test [2], the inhibition in vivo at 3 mg/kg was more than 50%. Also, the “Inhibition effect to PPI disorder” value in test [3] was “yes”.

With `CCCN1Cc2cc(-c3nnn(-c4cccnc4F)c3C)ccc2C1=O` [Example 85, 1-(2-fluoropyridine-3-yl)-5-methyl-4-(2-propyl-1-oxo-isoindoline-5-yl)-1H-[1,2,3]triazole], in test [1], the IC50 was 4.4 nM. In addition, in test [2], the inhibition in vivo at 3 mg/kg is more than 50%. In test [3], the “Inhibition effect to PPI disorder” value was “yes”.

With `Cc1c(-c2ccc3c(c2)CN(C2CC2)C3=O)nnn1-c1cccnc1F` [Example 49, 4-(2-cyclopropyl-1-oxo-isoindoline-5-yl)-1-(2-fluoropyridine-3-yl)-5-methyl-1H-[1,2,3]triazole], the IC50 in test [1] worked out at 3.2 nM. In test [2], this molecule returned an inhibition in vivo at 3 mg/kg of more than 50%. For the same molecule, the “Inhibition effect to PPI disorder” value in test [3] was “yes”.

On to `Cc1c(-c2ccc3nc(CC(C)(C)O)ccc3c2)nnn1-c1ccc(F)cc1` [Example 227], for which the IC50 in test [1] is 2.4 nM. This molecule returned an inhibition in vivo at 3 mg/kg in test [2] of more than 50%. In addition, the “Inhibition effect to PPI disorder” value in test [3] was “yes”.

Take `Cc1c(-c2ccc3c(c2)CN(CC(C)(C)O)C3=O)nnn1-c1ccc(F)cc1` [Example 181, 4-(2-(2-hydroxy-2-methyl-propyl)-1-oxo-isoindoline-5-yl)-1-(4-fluorophenyl)-5-methyl-1H-[1,2,3]triazole]: in test [1], the IC50 stood at 18 nM. The inhibition in vivo at 3 mg/kg in test [2] is more than 50%. In addition, the “Inhibition effect to PPI disorder” value in test [3] is “yes”.

Regarding `Cc1c(-c2ccc3c(c2)CN(C(C)C)C3=O)nnn1-c1cccnc1F` [Example 36, 4-(2-isopropyl-1-oxo-isoindoline-5-yl)-1-(2-fluoropyridine-3-yl)-5-methyl-1H-[1,2,3]triazole], in test [1], the IC50 was 6.5 nM. The inhibition in vivo at 3 mg/kg in test [2] is more than 50%. The “Inhibition effect to PPI disorder” value in test [3] is “yes”.

Consider `Cc1c(-c2ccc3c(c2)CN(C2CC2)C3=O)nnn1-c1ccccc1F` [Example 87, 4-(2-cyclopropyl-1-oxo-isoindoline-5-yl)-1-(2-fluorobenzene-3-yl)-5-methyl-1H-[1,2,3]triazole], for which, in test [1], the IC50 was 4.3 nM. In addition, the inhibition in vivo at 3 mg/kg in test [2] was more than 50%. Besides, in test [3], the “Inhibition effect to PPI disorder” value is “yes”.
